According to patent US20240316043A1, “BROMODOMAIN INHIBITORS FOR CANCER THERAPY” (University of Tennessee Research Foundation, priority 2023, published 2024):
Entries after “also recorded” stand apart in the source; their conditions may differ.

Assays:
[1] = biological target: T1, BRG1 bromodomain (Homo sapiens, UniProt P51532); assay: Cellular thermal shift assay (CETSA), BRG1 bromodomain construct in MT330 cells; format: binding; details: FIG. 3
T1 construct: expressed in transfected cells; host or cells: MT330 glioblastoma cells
Protocol: After heating over a temperature range from 44.5° C. to 55.6° C. for 5 min, the cells were lysed, placed on ice at 4° C. and then immunoblotted for BRG1 or actin.
(§1) For the CETSA, MT330 cells expressing the BRM (FIG. 6B), or BRG1 (FIG. 6C) the BRD construct were treated with bromodomain inhibitors […] and immunoblotted as indicated.
(§2) After heating over a temperature range from 44.5° C. to 55.6° C. for 5 min, MT330 cells were lysed and then immunoblotted for BRG1 or BRM.

[2] = test system: U87 GBM cells; assay: Cell death ELISA in TMZ-resistant U87 cells; format: cell-based; details: U87, TMZ (500 μM) and inhibitor (10 μM), 72 hr, FIG. 4
Protocol: (§3) After 72 hr, cell death was determined by a commercial cell death ELISA.
(§4) To further test the bioactivity of bromodomain inhibitors, T98G and U87 GBM cell lines were used that are highly resistant to the death inducing activity of TMZ. […] Because of their high TMZ resistance, these cells may serve as cell models for TMZ resistant GBM cancer stem-like cells.

[3] = test system: intracranial GBM xenografts (MT330 cells); assay: Orthotopic GBM model, MT330 cells injected into brains of NSG mice; format: in vivo
Protocol: MT330 cells (10^6) were injected into the brains of NSG female mice. After tumors were identified by BLI (˜10 days post-injection), mice were IP injected with TMZ (60 mg/Kg body weight) or IV-129 (10 mg/Kg) alone or in combination 3 times per week (5 mice per group) for 2 weeks. […] FIG. 5C Kaplan-Meier analysis of the survival data (5 mice/group) of the brain tumor-bearing mice was performed.
MT330 cells […] were injected into the brains of NSG female mice. After tumors were identified by BLI (˜10 days post-injection), mice were IP injected with TMZ (10 mg/Kg body weight), IV-255 or IV-275 (20 mg/Kg) alone or in combination 3 times per week (5 mice/group).
Luciferase-expressing MT330 cells were injected into the brains of immunocompromised NSG mice. Once tumors were identified by bioluminescence imaging (BLI) at ˜10 days after tumor cell injection, mice were subjected to intraperitoneal injection of TMZ or YH-IV-129 alone, or in combination. At 20 days after initiation of treatment, live animal imaging was performed on an IVIS Lumina instrument. […] The mean survival of control mice was 27 days after cell injection (FIG. 5C).
Luciferase-expressing MT330 cells were injected into the brains of immunocompromised NSG mice. Once tumors were identified by bioluminescence imaging (BLI) at ˜10 days after tumor cell injection, mice were subjected to intraperitoneal injection of TMZ or YH-IV-255 or YH-IV-275 alone, or in combination. […] This is compelling preliminary evidence that these two new compounds have potent anticancer activity in intracranial GBM xenografts when combined with standard-of-care TMZ chemotherapy and that these drugs cross the blood-brain barrier.

[4] = test system: T98G GBM cells; assay: Cell death ELISA in TMZ-resistant T98G cells; format: cell-based; details: TMZ (500 μM) and inhibitor (10 μM), 72 hr
Protocol: as §3, §4

[5] = Tolerability in mice not injected with tumor cells; format: in vivo; details: at the drug doses used
[6] = test system: MT330 GBM cells; assay: Cell death ELISA in MT330 GBM cells; format: cell-based
Protocol: Control cells were treated with vehicle (DMSO). Cell death was determined at 72 hr after treatment by a cell death ELISA that quantifies histone-complexed DNA fragments. […]
Parental and BRG1 knockout MT330 cells were treated with bleomycin (0.01 μM) and bromodomain inhibitors […]. After 72 hr, cell death was determined by cell death ELISA.
The biological activity of bromodomain inhibitors was assessed for the ability to enhance TMZ-induced cell death. In brief, MT330 cells were treated with […] of bromodomain inhibitors alone, or in combination with […] of TMZ for 72 hrs, and GBM cell death was determined by a commercial ELISA.

[7] = test system: T98G GBM cells; assay: IncuCyte live cell imaging proliferation assay; format: cell-based; details: TMZ (500 μM) plus bromodomain inhibitors (20 μM), FIG. 2
Protocol: T98G GBM cells were treated with TMZ (500 μM), the bromodomain inhibitors (20 μM), and cell proliferation was determined by Incucyte live cell assays using cellular confluence method. The data was normalized to the calculated cell confluence at day 0. Control cells were treated with vehicle (DMSO).
To further characterize the biological activity of selected bromodomain inhibitors, YH-IV-129, YH-IV-181 and YH-IV-191, IncuCyte live cell imaging proliferation assays were performed with the highly TMZ-resistant T98G GBM cell line.

[8] = biological target: T2, BRM bromodomain (Homo sapiens, UniProt P51531); assay: Cellular thermal shift assay (CETSA), BRM bromodomain construct in MT330 cells; format: binding; details: FIG. 3
T2 construct: expressed in transfected cells; host or cells: MT330 glioblastoma cells
Protocol: as §1, §2

[9] = vehicle control band disappearing at 49.8° C.

T2 sequence (P51531 1378-1506 limits assumed): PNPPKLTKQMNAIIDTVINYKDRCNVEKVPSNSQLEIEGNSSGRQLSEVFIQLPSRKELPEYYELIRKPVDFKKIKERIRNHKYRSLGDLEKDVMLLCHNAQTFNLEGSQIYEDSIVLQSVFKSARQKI
T1 sequence (P51532 1453-1564 limits assumed): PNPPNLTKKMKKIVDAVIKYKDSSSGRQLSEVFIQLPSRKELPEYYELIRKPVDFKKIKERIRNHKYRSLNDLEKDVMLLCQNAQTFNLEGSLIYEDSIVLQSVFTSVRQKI

SMILES: COc1ccc(N2C[C@H]3C[C@@H]2CN3C(=O)OC(C)(C)C)cc1 [YH-IV-129, (1R,4R)-tert-butyl 5-(4-methoxyphenyl)-2,5-diazabicyclo[2.2.1]heptane-2-carboxylate]
- thermostability of the BRG1 BRD ([1]; 30 μM, heating 44.5° C. to 55.6° C. for 5 min, immunoblot): significantly increased the thermostability
- temperature at which the BRG1 BRD protein band is undetectable [1, 9]: 54.20 °C
- sensitization to cell-death inducing effects of TMZ [2]: much more potent than PFI-3
- sensitization to cell-death inducing effects of TMZ ([2]; listed as IV-129): more potent than PFI-3 as a chemosensitizer to TMZ
- mean survival, combination with TMZ ([3]; TMZ (60 mg/Kg) and IV-129 (10 mg/Kg) IP, control mice 27 days after cell injection, FIG. 5C): 48 days
- mean survival, either agent alone ([3]; TMZ (60 mg/Kg) or IV-129 (10 mg/Kg) alone IP, control mice 27 days, FIG. 5C): 35 days
- tumor size by bioluminescence (BLI) ([3]; combination with TMZ (60 mg/Kg) and IV-129 (10 mg/Kg) IP 3 times per week for 2 weeks, 20 days after treatment, versus either agent alone): much smaller tumors
- weight loss ([3]; combination with TMZ, 20 days post-treatment, versus either agent alone, FIG. 5B): weight loss was much lower
- crossing of the blood-brain barrier ([3]; inferred from activity in intracranial GBM xenografts): crosses the blood-brain barrier
- sensitization to cell-death inducing effects of TMZ ([4]; FIG. 4): much more potent than PFI-3
- sensitization to cell-death inducing effects of TMZ ([4]; FIG. 4, listed as IV-129): more potent than PFI-3 as a chemosensitizer to TMZ
- adverse effects on health, behavior or weight [5]: no adverse effects on the health, behavior or weight of mice
- enhancement of TMZ-induced cell death ([6]; 10 mM inhibitor in combination with 200 mM of TMZ, 72 hrs, FIG. 1): better efficacy than PFI-3; also recorded: markedly enhanced TMZ sensitivity of GBM cells in vitro
- enhancement of bleomycin-induced cell death ([6]; bleomycin (0.01 μM) and bromodomain inhibitors (10 μM), 72 hr, FIG. 9): sensitized GBM cells to bleomycin-induced cell death
- cell death, inhibitor alone ([6]; bromodomain inhibitors (10 μM) alone, 72 hr, FIG. 9): none of the bromodomain inhibitors (YH-IV-129, YH-IV-255 and YH-IV-275) alone had any death inducing activity
- sensitization to the antiproliferative action of TMZ [7]: potently sensitized T98G GBM cells to the antiproliferative action of TMZ
- thermostability of the BRM BRD ([8]; heating 44.5° C. to 55.6° C. for 5 min, immunoblot): significantly increased the thermostability
- temperature at which the BRM BRD protein band is undetectable [8, 9]: 54.20 °C
